Laboratory results as given in US4914191A, “Anthracycline derivatives having cytostatic activity” (Behringwerke Aktiengesellschaft, priority 1987, dated 1990).
Converted amounts (≈) assume the structure as drawn. Where a name gives a salt, the structure may show the parent alone. Read-outs that look alike come from different tables or passages of the source.

Tests used:
[1] = test system: L1210 leukemia cells; assay: cross-resistance in vitro, MTT assay on sensitive and adriamycin (doxorubicin)-resistant L1210 leukemia cells; format: cell-based, mouse; conditions: for Degree of cross-resistance to adriamycin / Degree of resistance of the cell: 3d incubation; for Degree of resistance of the cell: IC50 resistant subline relative to IC50 sensitive line
Description: L1210, A 549 or HT 29 in the exponential phase of growth are incubated in a cell density of 5×10^3 cells/ml in RPMI 1640 in a 96-well microtiter plate for 72 hours with various concentrations of the test substance at 37° C., 5% CO2 and 95% relative humidity. Control experiments contain merely growth medium in place of the test substance. Each test substance and the control are determined in quadruplicate. After incubation for 65 hours, 50 μl of MTT solution (2.5 mg/ml in phosphate-buffered saline) are added. In the presence of live cells, MTT is reduced to a dark-red insoluble formazan dyestuff. This reaction is complete after 7 hours (L1210 cells) or after 24 hours (A 549, HT 29 cells), and the supernatant medium is carefully removed by aspiration. The insoluble dyestuff is dissolved by addition of 100 μl of DMSO, and the extinction of the resulting solution at a wavelength of 492 nm is then measured for each well in a Flow 340 CC multiscan photometer.
The ratio of the extinctions of treated and untreated cells yields a dose-effect plot from which the concentration which just kills 50% of the cells (IC50) can be read off. The coefficient of variation for repeat tests is less than 15%.
The cross-resistance between the particular test compound and doxorubicin is determined using the MTT assay (for method, see above) on sensitive and resistant L1210 leukemia cells.
The resistant cell line was established by incubation of a sensitive subline with stepwise increasing concentrations of the reference compound.
The IC50 of the test compound on the resistant subline relative to the IC50 of the sensitive subline yields the degree of resistance both for the test compound (DR(T)) and for the reference compound (DR(R)) in accordance with the formula [formula]
In addition, the degree of cross-resistance (DCR) for the test compound is calculated in accordance with the formula [formula]
In the case where the loss of activity of the test compound on the resistant line related to the sensitive line is greater than that of the reference compound, a degree of cross-resistance of more than 100% is possible.

[2] = test system: L1210 mouse leukemia cells; assay: formation of colonies of L1210 leukemia cells in soft agar; format: cell-based; conditions: for IC50: Mus musculus
Description: The cytostatic activity of the compounds according to the invention was tested using L1210 mouse leukemia cells. This made use of the formation of colonies of L1210 leukemia cells in agar plates. This method is used to detect the effect of the test substances on the growth behavior of the cells over 1 hour or over several generations. With a cell cycle lasting 10-12 hours, this means that about 14 consecutive generations are observed in a test lasting 7 days. In this test, the substances having cytostatic activity according to the invention bring about a reduction in the number of colonies to be observed by comparison with an untreated control sample.
500 leukemia cells per plate were incubated with various concentrations of the test substance at 37° C. for 1 hour. These cells were then washed twice with McCoy5A medium and finally, after addition of 0.3% agar, poured into Petri dishes. Controls were incubated only with fresh medium. In some cases, in place of the incubation for one hour, various concentrations of test substances were mixed with the upper agar layer in order in this way to achieve continuous exposure of the cells throughout the incubation time. After the agar had solidified, the plates were incubated at 37° C. in an incubator for 7 days (5% by vol. CO2, 95% relative humidity). The number of colonies with a diameter of more than 60 μm which had formed was then counted. The results have been given as the number of colonies in treated agar plates as a percentage of the untreated control. The IC50 was determined, as a measure of the activity of the substance, from the dose-effect plot obtained in this way.

[3] = approximative toxicity, intraperitoneal (LD50); conditions: in vivo, ip
Excerpt: *3xip,q3d: three intraperitoneal administrations with an interval of thre
1xip: one intraperitoneal administration

[4] = L1210, 168 h, read-out: Long-term incubation IC50, continuous exposure, 7 days, L1210 colony formation
[5] = L1210, read-out: 1 h Incubation IC50, 1 h incubation, then 7 days colony formation, L1210
[6] = one intraperitoneal administration, read-out: Approximative toxicity LD50, 1xip
[7] = three intraperitoneal administrations with an interval of three days between each, read-out: Approximative toxicity LD50, 3xip, q3d
[8] = 168 h, continuous exposure, 7 days, L1210 colony formation, read-out: Long-term incubation IC50
[9] = 1 h incubation, then 7 days colony formation, L1210, read-out: 1 h Incubation IC50
[10] = 1 h incubation, then 7 days colony formation, L1210
[11] = continuous exposure, 7 days, L1210 colony formation

Row | Compound | IC50 [2, 4] [µg/mL] | IC50 [2, 5] [µg/mL] | LD50 [3, 6] [mg/kg] | IC50 [2, 8] [µg/mL] | IC50 [2, 9] [µg/mL] | further results
1 | COc1cccc2c1C(=O)c1c(O)c3c(c(O)c1C2=O)C[C@@](O)(C(=O)CO)C[C@@H]3O[C@H]1C[C@H](N)[C@H](O)[C@H](C)O1 [Adriamycin, reference compound] | 0.02 (≈ 0.0368 µM) | 0.04 (≈ 0.0736 µM) |  |  |  | Degree of cross-resistance to adriamycin [1]: 100.0%; Degree of resistance of the cell [1]: 60-80; resistance of the resistant cell line for doxorubicin ([1]; resistant L1210 line, 4320 min): 60-80 fold
2 | CC[C@@]1(O)C[C@H](O[C@H]2C[C@H](N(C)C)[C@H](OC(=O)c3ccccc3)[C@H](C)O2)c2c(O)c3c(c(O)c2[C@H]1O[C@H]1C[C@H](N(C)C)[C@H](OC(=O)c2ccccc2)[C@H](C)O1)C(=O)c1cccc(O)c1C3=O [Compound 1, 7,10-O-Bis-(4'-O-benzoyl-α-L-rhodosaminyl)-β-rhodomycinone] |  |  | > 100 |  |  | Degree of cross-resistance to adriamycin [1]: 0%; Degree of resistance of the cell [1]: 1.0
3 | CC[C@@]1(O)C[C@H](O[C@H]2C[C@H](N(C)C)[C@H](OC(=O)c3ccccc3)[C@H](C)O2)c2c(O)c3c(c(O)c2[C@H]1O[C@H]1C[C@H](N(C)C)[C@H](OC(=O)c2ccccc2)[C@H](C)O1)C(=O)c1cccc(O)c1C3=O [Compound 2, HCl adduct of compound 1] |  |  |  | 0.095 | > 1 | LD50 [3, 7]: > 85 mg/kg
4 | CC[C@@]1(O)C[C@H](O[C@H]2C[C@H](N(C)C)[C@H](OC(=O)c3ccc(OC)cc3)[C@H](C)O2)c2c(O)c3c(c(O)c2[C@H]1O[C@H]1C[C@H](N(C)C)[C@H](OC(=O)c2ccc(OC)cc2)[C@H](C)O1)C(=O)c1cccc(O)c1C3=O [Compound 3, 7,10-O-Bis-(4'-O-p-methoxybenzoyl-α-L-rhodosaminyl)-β-rhodomycinone] | 0.115 (≈ 0.119 µM) | > 1 | > 100 |  |  | 
5 | CC[C@@]1(O)C[C@H](O[C@H]2C[C@H](N(C)C)[C@H](OC(=O)c3ccc(OC)cc3)[C@H](C)O2)c2c(O)c3c(c(O)c2[C@H]1O[C@H]1C[C@H](N(C)C)[C@H](OC(=O)c2ccc(OC)cc2)[C@H](C)O1)C(=O)c1cccc(O)c1C3=O [Compound 4, HCl adduct of compound 3] |  |  |  |  |  | 1 h Incubation IC50 [2, 10]: > 1 µg/mL; Long-term incubation IC50 [2, 11]: 0.09 µg/mL
6 | CC[C@@]1(O)C[C@H](O[C@H]2C[C@H](N(C)C)[C@H](OC(=O)c3ccc(C#N)cc3)[C@H](C)O2)c2c(O)c3c(c(O)c2[C@H]1O[C@H]1C[C@H](N(C)C)[C@H](OC(=O)c2ccc(C#N)cc2)[C@H](C)O1)C(=O)c1cccc(O)c1C3=O [Compound 5, 7,10-O-Bis-(4'-O-p-cyanobenzoyl-α-L-rhodosaminyl)-β-rhodomycinon] | 0.105 (≈ 0.109 µM) | > 1 |  |  |  | 
7 | CC[C@@]1(O)C[C@H](O[C@H]2C[C@H](N(C)C)[C@H](OC(=O)c3ccc(C#N)cc3)[C@H](C)O2)c2c(O)c3c(c(O)c2[C@H]1O[C@H]1C[C@H](N(C)C)[C@H](OC(=O)c2ccc(C#N)cc2)[C@H](C)O1)C(=O)c1cccc(O)c1C3=O [Compound 6, HCl adduct of compound 5] |  |  |  |  |  | 1 h Incubation IC50 [2, 10]: > 1 µg/mL; Long-term incubation IC50 [2, 11]: 0.14 µg/mL
8 | CC[C@@]1(O)C[C@H](O[C@H]2C[C@H](N(C)C)[C@H](OC(=O)c3ccc([N+](=O)[O-])cc3)[C@H](C)O2)c2c(O)c3c(c(O)c2[C@H]1O[C@H]1C[C@H](N(C)C)[C@H](OC(=O)c2ccc([N+](=O)[O-])cc2)[C@H](C)O1)C(=O)c1cccc(O)c1C3=O [Compound 7, 7,10-O-Bis-(4'-O-p-nitrobenzoyl-α-L-rhodosaminyl)-β-rhodomycinone] | 2.1 (≈ 2.1 µM) | > 10 |  |  |  | 
9 | CC[C@@]1(O)C[C@H](O[C@H]2C[C@H](N(C)C)[C@H](OC(=O)c3ccc(Br)cc3)[C@H](C)O2)c2c(O)c3c(c(O)c2[C@H]1O[C@H]1C[C@H](N(C)C)[C@H](OC(=O)c2ccc(Br)cc2)[C@H](C)O1)C(=O)c1cccc(O)c1C3=O [Compound 8, 7,10-O-Bis-(4'-O-p-bromobenzoyl-α-L-rhodosaminyl)-β-rhodomycinone] | 0.3 (≈ 0.281 µM) | > 10 |  |  |  | 
10 | CC[C@@]1(O)C[C@H](O[C@H]2C[C@H](N(C)C)[C@H](OC(C)=O)[C@H](C)O2)c2c(O)c3c(c(O)c2[C@H]1O[C@H]1C[C@H](N(C)C)[C@H](OC(C)=O)[C@H](C)O1)C(=O)c1cccc(O)c1C3=O [Compound 9, 7,10-O-Bis-(4'-O-acetyl-α-L-rhodosaminyl)-β-rhodomycinone] |  |  | 3.4 to 6.5 | 0.026 (≈ 0.0331 µM) | 0.06 (≈ 0.0764 µM) | Degree of cross-resistance to adriamycin [1]: 6.0%; Degree of resistance of the cell [1]: 6.0
11 | CCC(=O)O[C@@H]1[C@H](C)O[C@@H](O[C@H]2C[C@](O)(CC)[C@H](O[C@H]3C[C@H](N(C)C)[C@H](OC(=O)CC)[C@H](C)O3)c3c(O)c4c(c(O)c32)C(=O)c2c(O)cccc2C4=O)C[C@@H]1N(C)C [Compound 10, 7,10-O-Bis-(4'-O-propionyl-α-L-rhodosaminyl)-β-rhodomycinone] |  |  |  | 0.12 (≈ 0.148 µM) | 0.25 (≈ 0.308 µM) | 
12 | CC[C@@]1(O)C[C@H](O[C@H]2C[C@H](N(C)C)[C@H](OC(=O)c3ccc(OC)cc3)[C@H](C)O2)c2c(O)c3c(c(O)c2[C@H]1O[C@H]1C[C@H](N(C)C)[C@H](O)[C@H](C)O1)C(=O)c1cccc(O)c1C3=O [Compound 12a, 7-O-[(4'-O-p-methoxybenzoyl)-α-L-rhodosaminyl]-10-O-α-L-rhodosaminyl-β-rhodomycinone] |  |  |  | 0.0085 (≈ 0.0102 µM) | 0.13 (≈ 0.156 µM) | Degree of cross-resistance to adriamycin [1]: 1.3%; Degree of resistance of the cell [1]: 0.75; LD50 [3, 7]: 10 to 15 mg/kg
13 | CC[C@@]1(O)C[C@H](O[C@H]2C[C@H](N(C)C)[C@H](OC(=O)c3ccccc3)[C@H](C)O2)c2c(O)c3c(c(O)c2[C@H]1O)C(=O)c1cccc(O)c1C3=O [Compound 17, 7-O-(4'-O-benzoyl-α-L-rhodosaminyl)-β-rhodomycinone] |  |  | 1 to 10 | 0.12 (≈ 0.185 µM) | 0.9 (≈ 1.39 µM) | 
14 | CC[C@@]1(O)C[C@H](O[C@H]2C[C@H](N(C)C)[C@H](OC(=O)c3ccc(OC)cc3)[C@H](C)O2)c2c(O)c3c(c(O)c2[C@H]1O)C(=O)c1cccc(O)c1C3=O [Compound 18, 7-O-(4'-O-p-Methoxybenzoyl-α-L-rhodosaminyl)-β-rhodomycinone] |  |  | 10 to 50 | 0.075 (≈ 0.111 µM) | 0.66 (≈ 0.974 µM) | 
15 | CC[C@@]1(O)C[C@H](O[C@H]2C[C@H](N(C)C)[C@H](OC(=O)c3ccc([N+](=O)[O-])cc3)[C@H](C)O2)c2c(O)c3c(c(O)c2[C@H]1O)C(=O)c1cccc(O)c1C3=O [Compound 19, 7-O-(4'-O-p-Nitrobenzoyl-α-L-rhodosaminyl)-β-rhodomycinone] | 0.03 (≈ 0.0433 µM) | 0.55 (≈ 0.794 µM) | > 50 |  |  | 
16 | CC[C@@]1(O)CCc2c(O)c3c(c(O)c2[C@H]1O[C@H]1C[C@H](N(C)C)[C@H](OC(=O)c2ccccc2)[C@H](C)O1)C(=O)c1cccc(O)c1C3=O [Compound 22, 10-O-(4'-O-Benzoyl-α-L-rhodosaminyl)-γ-rhodomycinone] |  |  | 1 to 10 | 0.48 (≈ 0.76 µM) | > 1 | 
